Results: patent publication US20180353460A1, “METHODS OF TREATING UROLOGICAL DISORDERS USING SARMs” (priority 2014, published 2018)

Tested on: prostate, seminal vesicles and levator ani muscle
Assay: Androgenic and anabolic activity in intact male rats, daily oral gavage
Assay type: in vivo, rat
Procedure: Male Sprague-Dawley rats weighing approximately 200 g were purchased from Harlan Bioproducts for Science (Indianapolis, Ind.). The animals were maintained on a 12 h light/dark cycle with food (7012C LM-485 Mouse/Rat Sterilizable Diet, Harlan Teklad, Madison, Wis.) and water available ad libitum. The anabolic and androgenic activity of compound of Formula VIII in intact animals was tested, as well as a dose response evaluation in acutely orchidectomized (ORX) animals. Regenerative effects of the compound of Formula VIII in chronically (9 days) ORX rats was similarly evaluated.
The test article for this study was weighed and dissolved in 10% DMSO (Fisher) diluted with PEG 300 (Acros Organics, NJ) for preparation of the appropriate dosage concentrations. The animals were housed in groups of 2 to 3 animals per cage. Animals were randomly assigned to one of seven groups consisting of 4 to 5 animals per group. Control groups (intact and ORX) were administered vehicle daily. Compound of Formula VIII was administered via oral gavage at doses of 0.01, 0.03, 0.1, 0.3, 0.75, and 1 mg/day to both intact and ORX groups. Where appropriate, animals were castrated on day one of the study. Treatment with compound of Formula VIII began nine days post ORX and was administered daily via oral gavage for fourteen days.
The animals were sacrificed under anesthesia (ketamine/xyalzine, 87:13 mg/kg) and body weights were recorded. In addition, ventral prostate, seminal vesicles, and levator ani muscle were removed, individually weighed, normalized to body weight, and expressed as a percentage of intact control. Student's T-test was used to compare individual dose groups to the intact control group. Significance was defined a priori as a P-value <0.05. Ventral prostate and seminal vesicle weights were evaluated as a measure of androgenic activity, whereas levator ani muscle weight was evaluated as a measure of anabolic activity. Blood was collected from the abdominal aorta, centrifuged, and sera were frozen at −80° C. prior to determination of serum hormone levels. Serum luteinizing hormone (LH) and follicle stimulating hormone (FSH) concentrations were determined.
Male Sprague-Dawley rats weighing approximately 200 g were purchased from Harlan Bioproducts for Science (Indianapolis, Ind.). The animals were maintained on a 12 h light/dark cycle with food (7012C LM-485 Mouse/Rat Sterilizable Diet, Harlan Teklad, Madison, Wis.) and water available ad libitum. Anabolic and androgenic activity of compound of Formula IX in intact animals was evaluated, and the dose response in acutely orchidectomized (ORX) animals was evaluated as well. Regenerative effects of compound of Formula IX in chronically (9 days) ORX rats were also assessed.
The compound was weighed and dissolved in 10% DMSO (Fisher) diluted with PEG 300 (Acros Organics, NJ) for preparation of the appropriate dosage concentrations. The animals were housed in groups of 2 to 3 animals per cage. Intact and ORX animals were randomly assigned to one of seven groups consisting of 4 to 5 animals per group. Control groups (intact and ORX) were administered vehicle daily. Compound of Formula IX was administered via oral gavage at doses of 0.01, 0.03, 0.1, 0.3, 0.75, and 1 mg/day to both intact and ORX groups.
Castrated animals (on day one of the study) were randomly assigned to dose groups (4-5 animals/group) of 0.01, 0.03, 0.1, 0.3, 0.75, and 1 mg/day, for dose-response evaluation. Dosing began nine days post ORX and was administered daily via oral gavage for fourteen days. The animals were sacrificed under anesthesia (ketamine/xyalzine, 87:13 mg/kg) after a 14-day dosing regimen, and body weights were recorded. In addition, ventral prostate, seminal vesicles, and levator ani muscle were removed, individually weighed, normalized to body weight, and expressed as a percentage of intact control. Student's T-test was used to compare individual dose groups to the intact control group. […]

In the case of `C[C@](O)(COc1ccc(C#N)cc1)C(=O)Nc1ccc(C#N)c(C(F)(F)F)c1` [Compound IX, (S)—N-(4-Cyano-3-(trifluoromethyl)phenyl)-3-(4-cyanophenoxy)-2-hydroxy-2-methylpropanamide], the “levator ani muscle weight” value (0.01 mg/day) is reported as 120%±12%, the prostate weight (0.01 mg/day) is reported as 111%±21% and the seminal vesicle weight (0.01 mg/day) is reported as 94%±9%. The “levator ani muscle weight” value (0.03 mg/day) was 116%±7%, the prostate weight (0.03 mg/day) was 88%±15% and the seminal vesicle weight (0.03 mg/day) was 77%±11%. The “levator ani muscle weight” value (0.1 mg/day) was 128%±7%, the prostate weight (0.1 mg/day) was 77%±17% and the seminal vesicle weight (0.1 mg/day) was 80%±9%. The “levator ani muscle weight” value (0.3 mg/day) was 134%±7%, the prostate weight (0.3 mg/day) was 71%±16% and the seminal vesicle weight (0.3 mg/day) was 73%±12%. The “levator ani muscle weight” value (0.75 mg/day) was 125%±9%, the prostate weight (0.75 mg/day) was 71%±10% and the seminal vesicle weight (0.75 mg/day) was 77%±10%. For the same compound, the “levator ani muscle weight” value (1 mg/day) was 146%±17%, the prostate weight (1 mg/day) was 87%±13% and the seminal vesicle weight (1 mg/day) was 88%±14%.
For `C[C@](O)(COc1ccc(C#N)cc1)C(=O)Nc1ccc(C#N)c(Cl)c1` [VIII, (S)—N-(3-Chloro-4-cyanophenyl)-3-(4-cyanophenoxy)-2-hydroxy-2-methylpropanamide], the “levator ani muscle weight” value (0.01 mg/day) was 107%±5%, the prostate weight (0.01 mg/day) was 103%±10% and the “levator ani muscle weight” value (0.03 mg/day) was 103%±7%. For the same compound, the prostate weight (0.03 mg/day) was 99%±10%, the “levator ani muscle weight” value (0.1 mg/day) was 97%±7% and the prostate weight (0.1 mg/day) was 58%±10%. The “levator ani muscle weight” value (0.3 mg/day) was 103%±5%, the prostate weight (0.3 mg/day) was 58%±15% and the “levator ani muscle weight” value (0.75 mg/day) was 118%±7%. The prostate weight (0.75 mg/day) was 65%±20%, the “levator ani muscle weight” value (1 mg/day) was 118%±7% and the prostate weight (1 mg/day) was 77%±23%.
For `C[C@](O)(COc1ccc(C#N)c(F)c1)C(=O)Nc1ccc(C#N)c(C(F)(F)F)c1` [XIII, (S)—N-(4-cyano-3-(trifluoromethyl)phenyl)-3-(4-cyano-3-fluorophenoxy)-2-hydroxy-2-methylpropanamide], the “levator ani muscle weight” value (0.01 mg/day) was 116%±7%, the prostate weight (0.01 mg/day) was 98%±21% and the seminal vesicle weight (0.01 mg/day) was 115%±12%. The “levator ani muscle weight” value (0.03 mg/day) was 134%±8%, the prostate weight (0.03 mg/day) was 99%±8% and the seminal vesicle weight (0.03 mg/day) was 109%±17%. For the same compound, the “levator ani muscle weight” value (0.1 mg/day) was 134%±21%, the prostate weight (0.1 mg/day) was 85%±18% and the seminal vesicle weight (0.1 mg/day) was 106%±13%. For the same compound, the “levator ani muscle weight” value (0.3 mg/day) was 134%±11%, the prostate weight (0.3 mg/day) was 98%±22% and the seminal vesicle weight (0.3 mg/day) was 121%±11%. For the same compound, the “levator ani muscle weight” value (0.75 mg/day) was 142%±10%, the prostate weight (0.75 mg/day) was 126%±17% and the seminal vesicle weight (0.75 mg/day) was 157%±5%. For the same compound, the “levator ani muscle weight” value (1 mg/day) was 147%±10%, the prostate weight (1 mg/day) was 126%±17% and the seminal vesicle weight (1 mg/day) was 136%±3%.
